Measurements as given in US6608086B2, “Dihydropyridines and new uses thereof” (Synaptic Pharmaceutical Corporation, priority 1993, dated 2003).
Structures can show the parent of a compound that is named as a salt. Where two headings read alike, the source gives them in different places. Each block holds one compound with its values, some of them ahead of it.

Legend:
α2C receptor = molecular target: T1, α2C receptor (Homo sapiens, UniProt P18825); assay: Competition binding, [3H]rauwolscine, human α2C receptor
T1 construct: host or cells: LM(tk-) cells, line L-α2C
T1 sequence (P18825 1-462): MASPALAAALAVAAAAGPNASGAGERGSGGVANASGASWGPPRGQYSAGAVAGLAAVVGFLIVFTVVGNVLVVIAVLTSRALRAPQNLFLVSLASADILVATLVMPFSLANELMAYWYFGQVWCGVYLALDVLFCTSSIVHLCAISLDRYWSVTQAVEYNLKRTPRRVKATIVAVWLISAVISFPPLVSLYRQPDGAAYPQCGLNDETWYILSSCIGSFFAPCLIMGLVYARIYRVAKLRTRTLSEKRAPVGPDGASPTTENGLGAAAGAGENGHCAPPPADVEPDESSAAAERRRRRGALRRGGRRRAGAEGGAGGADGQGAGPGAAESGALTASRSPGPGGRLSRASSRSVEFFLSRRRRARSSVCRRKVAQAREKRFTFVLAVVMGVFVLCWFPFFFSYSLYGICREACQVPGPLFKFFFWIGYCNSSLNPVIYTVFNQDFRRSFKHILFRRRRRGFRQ
Summary of the method: (§1)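 LM(tk−) lysates, stable α2A/α2B/α2C transfectants; 25 mM glycylglycine pH 7.6 (RT). [3H]rauwolscine 0.5 nM, equilibrium competition; NSB 10 μM phentolamine. GF/B filtration, cell harvester.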

α2A receptor = molecular target: T2, α2A receptor (Homo sapiens, UniProt P08913); assay: Competition binding, [3H]rauwolscine, human α2A receptor
T2 construct: host or cells: LM(tk-) cells, line L-α2A
T2 sequence (P08913 1-465): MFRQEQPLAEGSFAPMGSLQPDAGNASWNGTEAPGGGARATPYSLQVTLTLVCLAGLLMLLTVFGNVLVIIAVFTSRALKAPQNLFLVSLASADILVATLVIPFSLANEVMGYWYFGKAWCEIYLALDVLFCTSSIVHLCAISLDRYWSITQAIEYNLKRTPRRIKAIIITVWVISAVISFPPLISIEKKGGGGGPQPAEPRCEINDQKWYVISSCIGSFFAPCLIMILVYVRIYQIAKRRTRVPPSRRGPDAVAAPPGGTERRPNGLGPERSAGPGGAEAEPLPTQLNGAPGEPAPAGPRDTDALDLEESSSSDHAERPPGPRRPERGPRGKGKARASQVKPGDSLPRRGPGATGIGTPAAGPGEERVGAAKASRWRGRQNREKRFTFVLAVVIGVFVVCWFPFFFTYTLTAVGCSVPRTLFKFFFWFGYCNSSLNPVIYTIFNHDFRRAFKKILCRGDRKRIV
Summary of the method: as §1

[1] = molecular target: T3, α1A Human Adrenergic Receptor (Homo sapiens, UniProt P25100); assay: Radioligand binding, [3H]prazosin, cloned human α1A adrenergic receptor
T3 construct: The entire coding region of α1A (1719 bp); expressed in transfected cells
T3 sequence (P25100 1-572): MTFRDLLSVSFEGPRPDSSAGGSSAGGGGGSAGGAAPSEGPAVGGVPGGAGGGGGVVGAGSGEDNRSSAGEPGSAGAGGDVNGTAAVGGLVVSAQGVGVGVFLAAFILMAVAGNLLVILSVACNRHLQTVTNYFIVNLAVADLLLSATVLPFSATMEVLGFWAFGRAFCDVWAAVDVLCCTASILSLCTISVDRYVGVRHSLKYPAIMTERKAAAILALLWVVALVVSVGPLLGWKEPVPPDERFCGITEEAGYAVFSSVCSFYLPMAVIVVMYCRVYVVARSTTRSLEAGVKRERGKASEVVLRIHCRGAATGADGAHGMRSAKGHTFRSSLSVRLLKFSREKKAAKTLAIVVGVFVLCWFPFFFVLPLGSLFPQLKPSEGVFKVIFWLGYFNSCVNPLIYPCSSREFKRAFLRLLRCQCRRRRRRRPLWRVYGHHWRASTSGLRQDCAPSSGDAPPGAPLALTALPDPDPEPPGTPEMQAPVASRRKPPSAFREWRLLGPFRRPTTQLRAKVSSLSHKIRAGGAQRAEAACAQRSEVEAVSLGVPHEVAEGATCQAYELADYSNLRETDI
Summary of the method: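 Competition binding used membrane preparations of transfected LM(tk−) cells and the α1 antagonist [3H]prazosin at 0.5 nM, incubated 20 min at 37° C in Tris-HCl buffer, pH 7.5.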

[2] = [3H]rauwolscine, LM(tk-) cell line L-α2C, SEM and n in lines below, read-out: pKi alpha-2 2c (converted)
[3] = [3H]rauwolscine, LM(tk-) cell line L-α2A, SEM and n in lines below, read-out: pKi alpha-2 2a (converted)
[4] = [3H]prazosin, cloned human receptor in LM(tk-) cell membranes, SEM and n in lines below, read-out: pKi alpha-1 1a (converted)
[5] = [3H]rauwolscine, human receptor, LM(tk-) cell lysates, mean, read-out: PKi alpha-2 2c (converted)
[6] = [3H]rauwolscine, human receptor, LM(tk-) cell lysates, mean, read-out: PKi alpha-2 2a (converted)
[7] = [3H]prazosin, cloned human receptor, LM(tk-) cell membranes, mean, read-out: PKi alpha-1 1a (converted)

SMILES: CCOC(=O)C1(c2ccccc2)CCN(CCCNC(=O)C2=C(COC)NC(CC)=C(C(=O)O)C2c2ccc([N+](=O)[O-])cc2)CC1 (stereo not drawn) [Example 240, 3-(N-3-(4-Ethoxycarbonyl-4-phenylpiperidin-1-yl)propyl)carboxamido-6-ethyl-1,4-dihydro-2-(methyloxy)methyl-4-(4-nitro)phenylpyridine-5-carboxylic Acid]
Ki (α2C receptor; PKi alpha-2 2c): 11700 nM
Ki (α2A receptor): 18600 nM
Ki ([1]; PKi alpha-1 1a): 10000 nM

SMILES: CCC1=C(C(=O)NC)C(c2ccc([N+](=O)[O-])cc2)C(C(=O)NCCCN2CCC(C(=O)OC)(c3ccccc3)CC2)=C(COCCN)N1 (stereo not drawn) [Example 229, 2-((2-Aminoethyl)oxy)methyl-6-ethyl-1,4-dihydro-3-(N-(3-(4-methoxycarbonyl-4-phenylpiperidin-1-yl)propyl))carbo xamido-5-N-methylcarboxamido-4-(4-nitro)phenylpyridine]
Ki (α2C receptor; [5]): 891 nM
Ki (α2A receptor; [6]): 3020 nM
Ki [1, 7]: 4170 nM

SMILES: COC(=O)C1=C(C)NC(C)=C(C(=O)NCCCCN2CCC(c3ccccc3)(c3ccccc3)CC2)C1c1ccc([N+](=O)[O-])cc1.Cl.O (stereo not drawn) [Example 53, 1,4-Dihydro-3-methoxycarbonyl-2,6-dimethyl-4-(4-nitrophenyl)-5-{N-[4-(4,4-diphenylpiperidin-1-yl)butyl]}carboxamidopyridine hydrochloride hydrate]
pKi alpha-2 2c (α2C receptor; [3H]rauwolscine, LM(tk-) cell line L-α2C, SEM and n in lines below): 6.67
pKi alpha-2 2a (α2A receptor; [3H]rauwolscine, LM(tk-) cell line L-α2A, SEM and n in lines below): 6.18
pKi alpha-1 1a ([1]; [3H]prazosin, cloned human receptor in LM(tk-) cell membranes, SEM and n in lines below): 6.49

SMILES: CCC1=C(C(=O)OC)C(c2ccc([N+](=O)[O-])cc2)C(C(=O)NCCCN2CCC(C(=O)OC)(c3ccccc3)CC2)=C(COCCN)N1 (stereo not drawn) [Example 235, 2-((2-Aminoethyl)oxy)methyl-6-ethyl-1,4-dihydro-5-methoxycarbonyl-3-(N-(3-(4-methoxycarbonyl-4-phenylpiperidin-1-yl)propyl))carboxamido-4-(4-nitro)phenylpyridine]
Ki (α2C receptor; PKi alpha-2 2c): 1020 nM
Ki (α2A receptor): 2400 nM
Ki ([1]; PKi alpha-1 1a): 282 nM

SMILES: CCC1=C(C(N)=O)C(c2ccc([N+](=O)[O-])cc2)C(C(=O)NCCCN2CCC(C(=O)OC)(c3ccccc3)CC2)=C(COCCN)N1 (stereo not drawn) [Example 234, 2-((2-Aminoethyl)oxy)methyl-5-carboxamido-6-ethyl-1,4-dihydro-3-(N-(3-(4-methoxycarbonyl-4-phenylpiperidin-1-yl)propyl)) carboxamido-4-(4-nitro)phenylpyridine]
Ki (α2C receptor; [5]): 832 nM
Ki (α2A receptor; [6]): 1230 nM
Ki [1, 7]: 2750 nM

SMILES: CCC1=C(C(N)=O)C(c2ccc([N+](=O)[O-])cc2)C(C(=O)NCCCN2CCC(O)(c3ccccc3)CC2)=CN1CC.Cl.O (stereo not drawn) [Example 101, 5-Carboxamido-1,6-diethyl-1,4-dihydro-3-{N-[3-(4-hydroxy-4-phenylpiperidin-1-yl)propyl]}carboxamido-4-(4-nitrophenyl)pyridine hydrochloride hydrate]
pKi alpha-2 2c (α2C receptor; [3H]rauwolscine, human α2C receptor, LM(tk−) cells): 6.04
pKi alpha-2 2a (α2A receptor; [3H]rauwolscine, human α2A receptor, LM(tk−) cells): 5.89
pKi alpha-1 1a ([1]; [3H]prazosin, cloned human α1A receptor, LM(tk−) cell membranes): 5.86

The next lines start with the values.

Ki (α2C receptor; [2]): 661 nM
Ki (α2A receptor; [3]): 1510 nM
Ki [1, 4]: 1950 nM
SMILES: COC(=O)C1=C(C)NC(C)=C(C(=O)OCCCN2CCCCC2)C1c1ccc([N+](=O)[O-])cc1 (stereo not drawn) [Example 50, 1,4-Dihydro-5-methoxycarbonyl-2,6-dimethyl-4-(4-nitrophenyl)-3-[3-(piperidin-1-yl)propoxy]carbonylpyridine hydrochloride etherate]

Ki (α2C receptor; [2]): 23.4 nM
Ki (α2A receptor; [3]): 58.9 nM
Ki [1, 4]: 58.9 nM
SMILES: CCC1=C(C(=O)NCCCN2CCC(c3ccccc3)CC2)C(c2ccc([N+](=O)[O-])cc2)C(C(=O)OC)=C(C)N1 (stereo not drawn) [Example 74, 2-Ethyl-1,4-dihydro-5-methoxycarbonyl-6-methyl-4-(4-nitro)phenyl-3-(N-(3-(4-phenylpiperidin-1-yl)propyl)) carboxamidopyridine hydrochloride hydrate]

Ki (α2C receptor; [3H]rauwolscine, human α2C receptor, LM(tk−) cells, read-out: pKi alpha-2 2c (converted)): 44.7 nM
Ki (α2A receptor; [3H]rauwolscine, human α2A receptor, LM(tk−) cells, read-out: pKi alpha-2 2a (converted)): 22.4 nM
Ki ([1]; [3H]prazosin, cloned human α1A receptor, LM(tk−) cell membranes, read-out: pKi alpha-1 1a (converted)): 57.5 nM
SMILES: COc1ccccc1N1CCN(CCCNC(=O)C2=C(C)NC(C)=C(C(N)=O)C2c2ccc([N+](=O)[O-])cc2)CC1 (stereo not drawn) [Example 124]

Ki (α2C receptor; [2]): 417 nM
Ki (α2A receptor; [3]): 17.4 nM
Ki [1, 4]: 9.77 nM
SMILES: COC(=O)C1=C(C)NC(C)=C(C(=O)OCCCN2CCC(c3ccccc3)CC2)C1c1ccc([N+](=O)[O-])cc1 (stereo not drawn) [Example 48, 1,4-Dihydro-5-methazycarbonyl-2,6-dimethyl-4-(4-nitrophenyl)-3-[3-(4-phenylpiperidin-1-yl)propoxy]}carbonylpyridine hydrochloride hydrate]

Ki (α2C receptor; [2]): 251 nM
Ki (α2A receptor; [3]): 447 nM
Ki [1, 4]: 9770 nM
SMILES: COC(=O)C1=C(C)NC(C)=C(C(=O)NCCCN2CCCCC2)C1c1ccc([N+](=O)[O-])cc1 (stereo not drawn) [Example 51, 1,4-Dihydro-3-methoxycarbonyl-2,6-dimethyl-4-(4-nitrophenyl)-5-{N-[3-(piperidin-1-yl)propyl]}carboxamidopyridine hydrochloride etherate]

Ki (α2C receptor; [3H]rauwolscine, human α2C receptor, LM(tk-) cells, read-out: PKi alpha-2 2c (converted)): 36.3 nM
Ki (α2A receptor; [3H]rauwolscine, human α2A receptor, LM(tk-) cells, read-out: PKi alpha-2 2a (converted)): 123 nM
Ki ([1]; [3H]prazosin, cloned human α1A receptor, LM(tk-) cell membranes, read-out: PKi alpha-1 1a (converted)): 603 nM
SMILES: COC(=O)C1=C(C)NC(C)=C(C(=O)NCCCN2CCC(c3ccccc3)CC2)C1c1ccc2c(c1)OCO2 (stereo not drawn) [Example 250]

Ki (α2C receptor; [2]): 26.9 nM
Ki (α2A receptor; [3]): 347 nM
Ki [1, 4]: 126 nM
SMILES: COC(=O)C1=C(C)NC(C)=C(C(=O)NCCCN2CCC(c3ccccc3)CC2)C1c1ccc(Cl)c([N+](=O)[O-])c1 (stereo not drawn) [Example 17, 4-(4-Chloro-3-nitrophenyl)-1,4-dihydro-3-methoxycarbonyl-2,6-dimethyl-5-(N-(3-(4-phenylpiperidin-1-yl)propyl)carboxamido)pyridine]

Ki (α2C receptor; [2]): 52.5 nM
Ki (α2A receptor; [3]): 158 nM
Ki [1, 4]: 112 nM
SMILES: COC(=O)C1=C(C)NC(C)=C(C(=O)NCCCN2CCC(c3ccccc3)CC2)C1c1ccc(C)cc1 (stereo not drawn) [Example 31, 1,4-Dihydro-3-methoxycarbonyl-2,6-dimethyl-4-(4-methylphenyl)-5-(N-(3-(4-phenylpiperidin-1-yl)propyl)carboxamido)pyridine]
